Laboratory results taken from ChEMBL document CHEMBL5550184, “Structure-activity relationships of middle-size cyclic peptides, KRAS inhibitors derived from an mRNA display” (Bioorg Med Chem, 2024).
pIC50, pKd: −log10 of the molar value. Positions of bridges follow the written chain, without caps; N, C: chain ends. Non-standard residues stand in square brackets, D forms with d. Residues, ends and D or L forms follow the SMILES beside them. *: point of attachment. hPhe(3-Cl-4-CF3) = N[C@@H](CCc1ccc(C(F)(F)F)c(Cl)c1)C(=O)O; NMeGly(cPent) = CN[C@H](C(=O)O)C1CCCC1; NMeCha = CN[C@@H](CC1CCCCC1)C(=O)O; NEtLeu = CCN[C@@H](CC(C)C)C(=O)O; NMeChg = CN[C@H](C(=O)O)C1CCCCC1; NMeT = CN[C@H](C(=O)O)[C@@H](C)O; NMeD = CN[C@@H](CC(=O)O)C(=O)O; NMeL = CN[C@@H](CC(C)C)C(=O)O; NMehSer = CN[C@@H](CCO)C(=O)O; NMeAc5c = CNC1(C(=O)O)CCCC1; NMeNva = CCC[C@H](NC)C(=O)O; NMeV = CN[C@H](C(=O)O)C(C)C; Azetidin(1-yl) = C1CN(*)C1; NMeA = CN[C@@H](C)C(=O)O; Piperidide = C1CCN(*)CC1; Ac5c = NC1(C(=O)O)CCCC1; Aze = O=C(O)[C@@H]1CCN1; Sar = CNCC(=O)O

Key:
GTPase KRas = GTPase KRas (Homo sapiens, UniProt P01116, G12D); assay: Binding affinity to biotinylated KRAS G12D mutant (unknown origin) incubated for 120 mins by SPR analysis
Chain of GTPase KRas (P01116 whole entry G12D): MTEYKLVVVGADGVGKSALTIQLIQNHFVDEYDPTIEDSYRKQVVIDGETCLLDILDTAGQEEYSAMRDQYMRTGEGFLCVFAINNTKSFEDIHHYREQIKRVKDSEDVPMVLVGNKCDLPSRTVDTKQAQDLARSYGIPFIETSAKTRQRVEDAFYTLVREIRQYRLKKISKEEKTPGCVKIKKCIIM

ASPC1 = assay: Cytotoxicity against human AsPC1 cells assessed as reduction in cell viability incubated for 7 days by CellTiterGlo Luminescent Cell Viability Assay; type: functional, cell-based; settings: ASPC1, 168 h
[1] = system: GTPase KRas (Homo sapiens), P01116 [G12D]; assay: Binding affinity to biotinylated KRAS G12D mutant (unknown origin) assessed as Kon incubated for 120 mins by SPR analysis
Chain of GTPase KRas (Homo sapiens), P01116 [G12D] (P01116 whole entry G12D, looked up): as the sequence (P01116 whole entry G12D) above

[2] = system: GTPase KRas (Homo sapiens), P01116 [G12D]; assay: Binding affinity to biotinylated KRAS G12D mutant (unknown origin) assessed as Koff incubated for 120 mins by SPR analysis
[3] = Apparent permeability in human Caco-2 cells incubated for 180 mins by LC-MS/MS method; type: ADME, cell-based
[4] = Inhibition of biotin-tagged KRAS G12D mutant (unknown origin) to recombinant His-tagged SOS1 (unknown origin) protein-protein interaction incubated for 120 mins by AlphaLISA method; design: species or system Homo sapiens

## CCC[C@H]1C(=O)N[C@@H]([C@@H](C)CC)C(=O)N(C)CC(=O)N(C)CC(=O)N(C)[C@@H](CC2CCCCC2)C(=O)N(C)CC(=O)N[C@@H](CCc2ccc(C(F)(F)F)c(Cl)c2)C(=O)N2CCC[C@H]2C(=O)NC2(CCCC2)C(=O)N(C)[C@@H](C2CCCCC2)C(=O)N(C)[C@H](C(=O)N2CCCCC2)CC(=O)N1C ([NMeNva]I[Sar][Sar][NMeCha][Sar][hPhe(3-Cl-4-CF3)]P[Ac5c][NMeChg][NMeD]-Piperidide; lactam N-11)
GTPase KRas
  pKd: 9.12
ASPC1
  pIC50: 7.31
[1]
  K: 3.1 10^5/Ms
[2]
  K: 2.3 10^-4/s
[3]
  Papp at 3 h: 0.85 ×10⁻⁶ cm/s
[4]
  pIC50: > 8.70

## CC[C@H](C)[C@@H]1NC(=O)[C@H](C)N(C)C(=O)C[C@@H](C(=O)N2CCCCC2)N(C)C(=O)[C@H](C2CCCCC2)N(C)C(=O)C2(CCCC2)NC(=O)[C@@H]2CCCN2C(=O)[C@H](CCc2ccc(C(F)(F)F)c(Cl)c2)NC(=O)CN(C)C(=O)[C@H](CC2CCCCC2)N(C)C(=O)CN(C)C(=O)CN(C)C1=O ([NMeA]I[Sar][Sar][NMeCha][Sar][hPhe(3-Cl-4-CF3)]P[Ac5c][NMeChg][NMeD]-Piperidide; lactam N-11)
GTPase KRas
  pKd: 9.85
ASPC1
  pIC50: 7.04
[1]
  K: 1.2 10^6/Ms
[2]
  K: 1.7 10^-4/s
[3]
  Papp at 3 h: 0.56 ×10⁻⁶ cm/s
[4]
  pIC50: > 8.70

## CC[C@H](C)[C@@H]1NC(=O)[C@H]([C@@H](C)O)N(C)C(=O)C[C@@H](C(=O)N2CCCCC2)N(C)C(=O)[C@H](C2CCCCC2)N(C)C(=O)C2(CCCC2)NC(=O)[C@@H]2CCCN2C(=O)[C@H](CCc2ccc(C(F)(F)F)c(Cl)c2)NC(=O)CN(C)C(=O)[C@H](CC2CCCCC2)N(C)C(=O)CN(C)C(=O)CN(C)C1=O ([NMeT]I[Sar][Sar][NMeCha][Sar][hPhe(3-Cl-4-CF3)]P[Ac5c][NMeChg][NMeD]-Piperidide; lactam N-11)
GTPase KRas
  pKd: 9.64
ASPC1
  pIC50: 6.66
[1]
  K: 1.2 10^6/Ms
[2]
  K: 2.7 10^-4/s
[3]
  Papp at 3 h: 0.15 ×10⁻⁶ cm/s
[4]
  pIC50: > 8.70

## CC[C@H](C)[C@@H]1NC(=O)C2(CCCC2)N(C)C(=O)C[C@@H](C(=O)N2CCCCC2)N(C)C(=O)[C@H](C2CCCCC2)N(C)C(=O)C2(CCCC2)NC(=O)[C@@H]2CCCN2C(=O)[C@H](CCc2ccc(C(F)(F)F)c(Cl)c2)NC(=O)CN(C)C(=O)[C@H](CC2CCCCC2)N(C)C(=O)CN(C)C(=O)CN(C)C1=O ([NMeAc5c]I[Sar][Sar][NMeCha][Sar][hPhe(3-Cl-4-CF3)]P[Ac5c][NMeChg][NMeD]-Piperidide; lactam N-11)
GTPase KRas
  pKd: 9.19
ASPC1
  pIC50: 7.19
[1]
  K: 3.8 10^5/Ms
[2]
  K: 2.4 10^-4/s
[3]
  Papp at 3 h: 0.62 ×10⁻⁶ cm/s
[4]
  pIC50: > 8.70

## CC[C@H](C)[C@@H]1NC(=O)[C@H](CC(C)C)N(C)C(=O)C[C@@H](C(=O)N(C)C)N(C)C(=O)[C@H](C2CCCC2)N(C)C(=O)C2(CCCC2)NC(=O)[C@@H]2CCCN2C(=O)[C@H](CCc2ccc(C(F)(F)F)c(Cl)c2)NC(=O)CN(C)C(=O)[C@H](CC2CCCCC2)N(C)C(=O)[C@@H]2CCN2C(=O)[C@H](C)N(C)C1=O ([NMeL]I[NMeA][Aze][NMeCha][Sar][hPhe(3-Cl-4-CF3)]P[Ac5c][NMeGly(cPent)][NMeD]-NMe2; lactam N-11)
GTPase KRas
  pKd: 9.80
ASPC1
  pIC50: 8.26
[3]
  Papp at 3 h: 2.61 ×10⁻⁶ cm/s
[4]
  pIC50: > 8.70

## CC[C@H](C)[C@@H]1NC(=O)[C@H](CC(C)C)N(C)C(=O)C[C@@H](C(=O)N2CCCCC2)N(C)C(=O)[C@H](C2CCCCC2)N(C)C(=O)C2(CCCC2)NC(=O)[C@@H]2CCCN2C(=O)[C@H](CCc2ccc(C(F)(F)F)c(Cl)c2)NC(=O)CN(C)C(=O)[C@H](CC2CCCCC2)N(C)C(=O)CN(C)C(=O)CN(C)C1=O ([NMeL]I[Sar][Sar][NMeCha][Sar][hPhe(3-Cl-4-CF3)]P[Ac5c][NMeChg][NMeD]-Piperidide; lactam N-11)
GTPase KRas
  pKd: 9.49
ASPC1
  pIC50: 7.40
[1]
  K: 7.8 10^5/Ms
[2]
  K: 2.5 10^-4/s
[3]
  Papp at 3 h: 0.71 ×10⁻⁶ cm/s
[4]
  pIC50: > 8.70

## CC[C@H](C)[C@@H]1NC(=O)[C@H](CC(C)C)N(C)C(=O)C[C@@H](C(=O)N2CCC2)N(C)C(=O)[C@H](C2CCCC2)N(C)C(=O)C2(CCCC2)NC(=O)[C@@H]2CCCN2C(=O)[C@H](CCc2ccc(C(F)(F)F)c(Cl)c2)NC(=O)CN(C)C(=O)[C@H](CC2CCCCC2)N(C)C(=O)[C@@H]2CCN2C(=O)[C@H](C)N(C)C1=O ([NMeL]I[NMeA][Aze][NMeCha][Sar][hPhe(3-Cl-4-CF3)]P[Ac5c][NMeGly(cPent)][NMeD]-{Azetidin(1-yl)}; lactam N-11)
GTPase KRas
  pKd: 9.72
ASPC1
  pIC50: 7.89
[3]
  Papp at 3 h: 2.66 ×10⁻⁶ cm/s
[4]
  pIC50: > 8.70

## CC[C@H](C)[C@@H]1NC(=O)[C@H](CCO)N(C)C(=O)C[C@@H](C(=O)N2CCCCC2)N(C)C(=O)[C@H](C2CCCCC2)N(C)C(=O)C2(CCCC2)NC(=O)[C@@H]2CCCN2C(=O)[C@H](CCc2ccc(C(F)(F)F)c(Cl)c2)NC(=O)CN(C)C(=O)[C@H](CC2CCCCC2)N(C)C(=O)CN(C)C(=O)CN(C)C1=O ([NMehSer]I[Sar][Sar][NMeCha][Sar][hPhe(3-Cl-4-CF3)]P[Ac5c][NMeChg][NMeD]-Piperidide; lactam N-11)
GTPase KRas
  pKd: 9.77
ASPC1
  pIC50: 7.20
[1]
  K: 1.2 10^6/Ms
[2]
  K: 2.2 10^-4/s
[3]
  Papp at 3 h: 0.39 ×10⁻⁶ cm/s
[4]
  pIC50: > 8.70

## CC[C@H](C)[C@@H]1NC(=O)[C@H](CC(C)C)N(CC)C(=O)C[C@@H](C(=O)N2CCCCC2)N(C)C(=O)[C@H](C2CCCCC2)N(C)C(=O)C2(CCCC2)NC(=O)[C@@H]2CCCN2C(=O)[C@H](CCc2ccc(C(F)(F)F)c(Cl)c2)NC(=O)CN(C)C(=O)[C@H](CC2CCCCC2)N(C)C(=O)CN(C)C(=O)CN(C)C1=O ([NEtLeu]I[Sar][Sar][NMeCha][Sar][hPhe(3-Cl-4-CF3)]P[Ac5c][NMeChg][NMeD]-Piperidide; lactam N-11)
GTPase KRas
  pKd: 8.96
ASPC1
  pIC50: 7.14
[1]
  K: 2.1 10^5/Ms
[2]
  K: 2.3 10^-4/s
[3]
  Papp at 3 h: 0.29 ×10⁻⁶ cm/s
[4]
  pIC50: > 8.70

## CC[C@H](C)[C@@H]1NC(=O)[C@H](CC2CCCCC2)N(C)C(=O)C[C@@H](C(=O)N2CCCCC2)N(C)C(=O)[C@H](C2CCCCC2)N(C)C(=O)C2(CCCC2)NC(=O)[C@@H]2CCCN2C(=O)[C@H](CCc2ccc(C(F)(F)F)c(Cl)c2)NC(=O)CN(C)C(=O)[C@H](CC2CCCCC2)N(C)C(=O)CN(C)C(=O)CN(C)C1=O ([NMeCha]I[Sar][Sar][NMeCha][Sar][hPhe(3-Cl-4-CF3)]P[Ac5c][NMeChg][NMeD]-Piperidide; lactam N-11)
GTPase KRas
  pKd: 8.60
ASPC1
  pIC50: 6.68
[1]
  K: 1 10^5/Ms
[2]
  K: 2.6 10^-4/s
[3]
  Papp at 3 h: 0.2 ×10⁻⁶ cm/s
[4]
  pIC50: > 8.70

## CC[C@H](C)[C@@H]1NC(=O)[C@H](CC2CCCCC2)N(C)C(=O)C[C@@H](C(=O)N2CCCCC2)N(C)C(=O)[C@H](C(C)C)N(C)C(=O)C2(CCCC2)NC(=O)[C@@H]2CCCN2C(=O)[C@H](CCc2ccc(C(F)(F)F)c(Cl)c2)NC(=O)CN(C)C(=O)[C@H](CC2CCCCC2)N(C)C(=O)CN(C)C(=O)CN(C)C1=O ([NMeCha]I[Sar][Sar][NMeCha][Sar][hPhe(3-Cl-4-CF3)]P[Ac5c][NMeV][NMeD]-Piperidide; lactam N-11)
ASPC1
  pIC50: 6.02
[3]
  Papp at 3 h: 0.33 ×10⁻⁶ cm/s
[4]
  pIC50: 7.60

## CC[C@H](C)[C@@H]1NC(=O)[C@H](CCOC)N(C)C(=O)C[C@@H](C(=O)N2CCCCC2)N(C)C(=O)[C@H](C2CCCCC2)N(C)C(=O)C2(CCCC2)NC(=O)[C@@H]2CCCN2C(=O)[C@H](CCc2ccc(C(F)(F)F)c(Cl)c2)NC(=O)CN(C)C(=O)[C@H](CC2CCCCC2)N(C)C(=O)CN(C)C(=O)CN(C)C1=O ([NMehSer](Me)I[Sar][Sar][NMeCha][Sar][hPhe(3-Cl-4-CF3)]P[Ac5c][NMeChg][NMeD]-Piperidide; lactam N-11)
GTPase KRas
  pKd: 9.59
ASPC1
  pIC50: 7.13
[1]
  K: 1.1 10^6/Ms
[2]
  K: 2.8 10^-4/s
[3]
  Papp at 3 h: 0.37 ×10⁻⁶ cm/s
[4]
  pIC50: > 8.70
